Assay results: patent publication US20060067947A1, “Immunotherapeutic for cancer” (Orient Cancer Therapy Co., Ltd., priority 2002, published 2006)

Columns and labels:
pulmonary adenocarcinoma [1] = conditions: IRESSA alone, reported up to now; cited from earlier work
TNFα = TNFα measurement by ELISA; type: in vivo, human; conditions: Case 2; per date of visit
Procedure: After washing, 10% fetal bovine serum (FBS)-added RPMI-1640 culture medium was added for preparation to provide a cell count of 1×10^6/ml. Phytohemagglutinin (30 μg/ml) (manufactured by Difco) was added to 200 μl of the cell suspension thus obtained, and then the mixture was cultured using a 96 well microplate under 5% CO2 at 37° C. for 24 hours.

[2] = system: Th1/Th2 helper T-cells (CD4); assay: Th1/Th2 cell ratio by flow cytometry; type: in vivo, human; conditions: Case 2; per date of visit
Procedure: The Th1/Th2 cell ratio was determined according to an ordinary method by helper T(Th)-cell line three-color analytical assay using flow cytometry.
First, blood collected from cancer patients was treated for 4 hours at 37° C. with phorbol 12-myristate 13 acetate and ionomycin to stimulate cells in the blood to produce cytokines. Next, Breferdin A was added to stop the production reaction, cell surface marker CD4 was stained using an anti-CD4 antibody CD4-PC5 (Beckman Coulter), the cells were fixed and then subjected to hemolysis using FACS Lysing Solution (Nippon Becton Dickinson Co., Ltd.). Thereafter, cells were permeabilized with FACS Permeabilizing Solution (Nippon Becton Dickinson Co., Ltd.), and intracellular cytokines were stained using anti-IFNγ antibody/anti-IL-4 antibody (Fastimmune IFNγ FITC/IL-4 PE, from Nippon Becton Dickinson Co., Ltd.), and then measured and analysed with a flow cytometer (FACS Calibur, Becton Dickinson).

tumor markers = assay: Tumor markers in clinical testing; type: in vivo, human
Source text: A commercially available product was used for each of the markers used in the clinical testing, and measurement values were shown in accordance with the respective recommended methods. All abbreviations shown are in accordance with common methods of presentation.

CD8+ perforin+ cells = assay: CD8+ perforin production cell measurement; type: in vivo, human; conditions: Case 2; per date of visit
Source text: Further, the term “CD8+” denotes examination of cells with positive CD8. This method is useful for CTL activation measurement.
(§1) In the examples, using blood obtained from cancer patients, blood cells were discriminated as positive or negative of the cell surface antigens CD3, CD161 and CD8, with each cell proportion measured according to a conventional method by two-color assay using flow cytometry. At this time, for respective monoclonal antibodies to CD3, CD161 and CD8, those manufactured by Coulter or Becton Dickinson were used.
Two among CD3, CD161 and CD8, cell surface antigens, and perforin are measured with respect to peripheral blood lymphocyte according to a conventional method by three-color assay using flow cytometry. More specifically, a fixative is added to sampled blood, thus fixing cells. After addition of membrane permeating solution, anti-perforin antibody (manufactured by Pharmingen) is added for reaction. Further, PRE-Cy5 labeled second antibody (manufactured by DAKO) is added for reaction, followed by addition of anti-CD3-PE (Coulter 6604627) antibody and anti-CD161-FITC (B-D) antibody for reaction, after which measurement is conducted by flow cytometry. In the drawings and tables, the abbreviation “PER” is used.

IFNγ = IFNγ measurement by EIA; type: in vivo, human; conditions: Case 2; per date of visit
Procedure: (§2) After washing, 10% fetal bovine serum (FBS)-added RPMI-1640 culture medium is added for preparation to provide a cell count of 1×10^6. Phytohemagglutinin (manufactured by Difco) is added to 200 μl of the cell suspension thus obtained to provide a concentration of 20 μg/ml, and then the mixture is cultured using a 96 well microplate under 5% CO2 at 37° C. for 24 hours.

prostatic cancer = assay: Efficacy judgment on patients; type: in vivo, human; conditions: Case 2; IRESSA 250 mg/day combined with NITC, after one month
Procedure: (§3) Further, similarly to Example 1, an IL-12 inducer, shark cartilage (Seishin Enterprise Co., Ltd.), and a saccharide (NK, NKT activator) having an α1,3 structure were administered to the patients in each case according to the respective recommended prescriptions.

IL-12 = IL-12 measurement by ELISA; type: in vivo, human; conditions: Case 2; per date of visit
Procedure: Phytohemagglutinin (manufactured by Difco) is added to 200 μl of the cell suspension thus obtained to provide a concentration of 20 μg/ml, and then the mixture is cultured using a 96 well microplate under 5% CO2 at 37° C. for 24 hours.

pulmonary adenocarcinoma [3] = assay: Efficacy judgment on patients (CR, PR, LNC, SNC, PD)
Procedure: as §3

IL-10 = IL-10 measurement; type: in vivo, human; conditions: Case 2; per date of visit
Procedure: as §2

CD3−CD161+ NK cell = assay: NK cell measurement by flow cytometry; type: in vivo, human; conditions: Case 2; per date of visit
Source text: Likewise, the term “(CD3−CD161+)” refers to examination of cells with negative CD3 and positive CD161. This method is useful for NK cell measurement.
as §1

VEGF = assay: Serum VEGF by ELISA; type: in vivo, human; conditions: per date of visit
Procedure: (Measurement of vascular endothelial growth factor/VEGF, basic fibroblast growth factor/bFGF and neovascularization inhibitor endostatin/endostatin)
Serum concentrations were measured using commercially available kits for each enzyme linked immunosorbent assay (ELISA) ([…] Human VEGF, […] Human bFGF, […] Human Endostatin, from Cytimmune Sciences Inc.).

CD3+CD161+ NKT cell = assay: NKT cell measurement by flow cytometry; type: in vivo, human; conditions: Case 2; per date of visit
Procedure: Measurement of NKR-P1-bearing NKT cell can be conducted by measuring cell surface antigens (CD3 and CD161) existing specifically on the NKT cell surface. More specifically, peripheral blood lymphocytes are examined with respect to cells with positive CD3 and positive CD161 (CD3+CD161+). That is, CD3 and CD161, NKT cell surface antigens, are measured by the two-color assay through flow cytometry using monoclonal antibody. Here, the term “NKT cell activation” refers to as the CD3+CD161+ NKT cell proportion in lymphocyte being 10% or more and preferably 16% or more. The term “NKT cell activating capability” denotes a capability of increasing the NKT cell proportion to 10% or more and preferably 16% or more, or a capability of further augmenting the NKT cell proportion from a proportion before administration of a certain substance.
as §1

[4] = system: non-small-cell lung cancer, prostatic cancer and the like; conditions: cited from earlier work
[5] = system: Th1 cytokines (TNFα, IFNγ, IL-12)
Procedure: In this case, a measurement kit purchased from R&D Systems was used. In practice, to each well of a 96-well microplate were added 50 μl of a measuring diluent, Assay Diluent RD1F, and 200 μl of a standard solution or samples prepared by the method for preparing the aforementioned samples for cytokine measurement, after which the samples were allowed to stand still at room temperature for 2 hours for reaction. Thereafter, 200 μl of horseradish peroxidase-labeled anti-IL12 antibody was added to the solution of each well, and the wells were then allowed to stand still at room temperature for 2 hours. After removing the reaction solution from each well and washing three times, 200 μl of chromophore solution was added to each well, the wells were allowed to stand still at room temperature for 20 minutes, and 50 μl of enzyme reaction stopping solution was then added to each well. The absorbance of each sample was measured at 450 nm with Emax (from Wako Pure Chemical Industries, Ltd.) employing 550 nm as a control. The amount of IL-12 is represented in pg/ml.
Measurement of IFNγ was conducted by enzyme immunoassay (EIA) using the IFNγ EASIA kit available from BioSource Europe SA. […]

[6] = Case 1, IRESSA added to NITC, after one and a half months
[7] = Case 3, IRESSA with NITC, approximately 1 month
[8] = IRESSA alone, reported clinical results

## COc1cc2ncnc(Nc3ccc(F)c(Cl)c3)c2cc1OCCCN1CCOCC1 [IRESSA]
Pulmonary adenocarcinoma [1]
  proportion of effective cases: around 20%
TNFα
  TNF α (1000 pg/ml): 3420 pg/mL
[2]
  Ratio of TH1/TH2 (CD4) (7 or more): 2.7
Tumor markers; [6]
  various tumor markers: normalized
Tumor markers; Case 1, per date of visit
  CA15-3 (30 U/ml): 26 U/ml
  CA19-9 (37 U/ml): 32 U/ml
  CEA (5.0 ng/ml): 4.5 ng/mL
  NCC-ST-439 (7.0 U/ml): 6.7 U/ml
  SPAN-1 (30 U/ml): 16 U/ml
  Sielyl LEX-1 (38 U/ml): 36 U/ml
Tumor markers; Case 2, IRESSA combined with NITC, after one month, normalized
  PSA value: 4.0 ng/mL
Tumor markers; Case 2, per date of visit
  1CTP (4.5 ng/ml): 2.5 ng/mL
  CA19-9 (37 U/ml): 27 U/ml
  Gamma-seminoprotein (4.0 ng/ml): 4.0 ng/mL
  PA (RIA) (4.0 ng/ml): 4.0 ng/mL
  PAP (EIA) (3.0 ng/ml): 1.4 ng/mL
Tumor markers; Case 3, IRESSA with NITC, approximately 1 month, from 256 ng/ml prior to the treatment
  tumor marker CEA: 172 ng/mL
Tumor markers; Case 3, IRESSA with NITC, approximately 1 month, from 480 U/ml prior to the treatment
  SLX-1: 140 U/ml
CD8+ perforin+ cells
  CD8+ PER+ (14%): 7.2%
IFNγ
  IFN γ (10 IU/ml): 46.2 IU/ml
Prostatic cancer
  multiple bone metastasis: complete remission
IL-12
  IL-12 (7.8 pg/ml): 72.4 pg/mL
Pulmonary adenocarcinoma [3]; Case 1, IRESSA 250 mg per day added to NITC, after one and a half months
  carcinomatous pleural fluid and primary lung cancer: completely disappeared
Pulmonary adenocarcinoma [3]; [6]
  bone metastasis to right hip joint, cervical vertebrae and thoracic vertebrae: cured
Pulmonary adenocarcinoma [3]; [7]
  miliary lung metastasis: almost disappeared
  multiple costal metastasis: disappeared
  primary focus in the right lung: reduced by half
IL-10
  IL-10: 154 pg/mL
CD3−CD161+ NK cell
  CD3− CD161+ (11%): 12.3%
VEGF; Case 1
  VEGF: 320 pg/mL
VEGF; Case 2
  VEGF: 342 pg/mL
CD3+CD161+ NKT cell
  CD3+ CD161+ (16%): 17.0%
[4]; IRESSA alone, extremely rare cases
  period to reach complete remission: ≥ 4 months
[4]; [8]
  CR (complete remission) found: almost no CR
  PR (partial remission) cases: 10 to 20%
[4]; treatment by IRESSA
  cessation of proliferation (NC): about 50%
  reduction (PR) in cancer cells: about 20%
[5]; [6]
  TNFα, IFNγ, and IL-12: activated at levels exceeding standard values
[5]; [7]
  induced production of TNFα, IFNγ, and IL-12: increased
